Values of other authors in US7271001B2, “Method for mitochondrial targeting of p53” (The Research Foundation of State University of New York, priority 2004, dated 2007).

Key:
[1] = test system: tumor-derived p53 mutant proteins; settings: cell-based assays in vitro
tumor xenografts = tumor xenografts in nude mice

| Structure (SMILES) | restoration of transcriptional p53 function [1] | tumor growth (tumor xenografts) |
| --- | --- | --- |
| O=C1C2CCN(CC2)C1(CO)CO [PRIMA-1] | can restore transcriptional p53 function | slow tumor growth |
| COc1ccc(/C=C/c2nc(NCCCN(C)C)c3ccccc3n2)cc1 [CP-31398] | can restore transcriptional p53 function | slow tumor growth |
